# Test system: 616215-338-R-J1-PDC complex spheroid viability
# Assay: Anticancer human tumor 616215-338-R-J1-PDC patient-derived colon adenocarcinoma cell line growth inhibition [POLQ]
# Details: for IC50: curve of first compound; for viability, T/C: stronger effect = lower value
# Protocol: Multicellular complex tumor spheroid response to Polymerase (POL) inhibitors (novobiocin, ART-558, RP6685) in combination with a variety of drugs and investigational agents in selected tumor cell lines
# The POL inhibitors (novobiocin, ART-558, and RP6685) were evaluated both individually and in combination with standard of care and investigational anticancer small molecules within a complex spheroid model of solid tumors. . Complex spheroids include a stromal component modeled by human endothelial cells (HUVEC) and fibroblasts modeled by human mesenchymal stem cells (MSCs). The concentration ranges selected for each drug and investigational agent were based upon clinically achievable concentrations if the clinical Cmax of the agent was known.
# Compounds. The drugs and investigational agents: novobiocin (NSC847541), ART-558 (NSC835418), RP-6685 (NSC848927), peposertib (NSC802822), ceralasertib (NSC780249), elimusertib (NSC800525), camonsertib (NSC841442), AZD-1390 (NSC803789), olaparib (NSC753686), talazoparib (NSC767125), rucaparib (NSC756644), sotorasib (NSC818433), MRTX-1133 (NSC836407), SN-38 (NSC673596), topotecan (NSC609699), epotoside (NSC141540), doxorubicin (NSC123127), gemcitabine (NSC613327), 5-fluorouracil (NSC19893), paclitaxel (NSC125973), vemurafenib (NSC761431), MSA-2 (NSC828583), SN-011 (NSC837082), adavosertib (NSC754352), prexasertib (NSC758257), carboplatin (NSC241240) and oxaliplatin (NSC266046), were obtained from the National Cancer Institute (NCI) Developmental Therapeutics Program Chemical Repository (21). The FDA-approved anticancer drug set is available from the Developmental Therapeutics Program at https://dtp.cancer.gov/organization/dscb/obtaining/. […] The stock solutions were prepared in dimethyl sulfoxide (DMSO, Sigma-Aldrich, St. Louis, MO, cat. D2650), except for the platinum compounds which were prepared in saline (Quality Biological, Gaithersburg, MD, cat. 114-055-101), at 800-fold the tested concentration and stored at -70 degrees C prior to their use. All drugs and investigational agents were tested over a range starting from a high concentration at or near the clinical Cmax and decreasing in half-log increments. If the clinical Cmax for an agent had not been determined, the highest concentration tested was 10 microM, except for SN-38, which was tested at a high concentration of 1 microM.
# Cell Culture. All cells were maintained in an incubator at 37 degrees C and 5% CO2 with 95% humidity. The PDC lines were cultured according to standard operating procedures established by the NCI PDMR (https://pdmr.cancer.gov). Table 3 of the manuscript, lists the cell lines along with the number of the three cell types plated to form the mct-spheroids and media for tumor cell growth. After thawing, all PDC lines, except 997537-175-T-J1-PDC and 415267-285-R-J2-PDC, were cultured in Matrigel-coated flasks prepared with a working solution of 1X Ham's F-12 nutrient mix, without supplementation (Thermo Fisher Scientific, cat. 11765054), 100 U/mL penicillin-streptomycin (Thermo Fisher Scientific, cat. 15140122), and 2.5% Matrigel (Corning Inc., Corning, NY, cat. 354248) for the first three passages. The two PDC lines 997537-175-T-J1-PDC and 415267-285-R-J2-PDC were cultured on uncoated flasks. The 857933-349-R-J2-PDC line was cultured in 6C/Colon 1B media containing advanced DMEM/F-12 (Thermo Fisher Scientific, cat. 12634028), 10 mM HEPES (Thermo Fisher Scientific, cat. 15630080), 1X GlutaMAX supplement (Thermo Fisher Scientific, cat. 35050061), 0.1 mg/mL primocin (InvivoGen, San Diego, CA, cat. ant-pm-2), 10% defined fetal bovine serum, heat inactivated (HyClone Laboratories Inc., Logan, UT, cat. SH30070.03HI), 50% L-WRN conditioned media (ATCC, cat. CRL-3276), 1.25 mM N-Acetyl-L-cysteine (Sigma-Aldrich, cat. A9165), 10 mM nicotinamide (Sigma-Aldrich, cat. N0636), 1X B-27 supplement (Thermo Fisher Scientific, cat. 17504044), 1X N-2 supplement (Thermo Fisher Scientific, cat. […]
# 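Further: spheroids exposed to compounds for one week before readout.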
# 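Wherever viability, T/C is given: percent viability relative to DMSO vehicle wells taken as 100%.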
structure (smiles),measurement,setting,value
CCc1cc2c(N3CCc4c(cc(Cn5ccnc5)cc4-c4cn(C)nc4C(F)(F)F)C3=O)ccnc2c(OC)n1 + Nc1ccc(C#CCN(C(=O)Cc2ncc(C(F)(F)F)cc2C(F)(F)F)c2ccc(F)cc2)nn1,IC50,second compound 0.0316 µM,> 10 µM
same,IC50,second compound 0.1 µM,6.52 µM
same,IC50,second compound 0.316 µM,5.19 µM
same,IC50,second compound 1 µM,3.07 µM
same,IC50,second compound 3.16 µM,4.4 µM
same,IC50,second compound 10 µM,2.69 µM
same,"viability, T/C","second compound 0.0316 µM, first compound 0.0316 µM",118%
same,"viability, T/C","second compound 0.0316 µM, first compound 0.1 µM",111%
same,"viability, T/C","second compound 0.0316 µM, first compound 0.316 µM",95.6%
same,"viability, T/C","second compound 0.0316 µM, first compound 1 µM",56.6%
same,"viability, T/C","second compound 0.0316 µM, first compound 3.16 µM",54.1%
same,"viability, T/C","second compound 0.0316 µM, first compound 10 µM",49.1%
same,"viability, T/C","second compound 0.1 µM, first compound 0.0316 µM",117%
same,"viability, T/C","second compound 0.1 µM, first compound 0.1 µM",120%
same,"viability, T/C","second compound 0.1 µM, first compound 0.316 µM",88.8%
same,"viability, T/C","second compound 0.1 µM, first compound 1 µM",66.8%
same,"viability, T/C","second compound 0.1 µM, first compound 3.16 µM",55.8%
same,"viability, T/C","second compound 0.1 µM, first compound 10 µM",45.4%
same,"viability, T/C","second compound 0.316 µM, first compound 0.0316 µM",121%
same,"viability, T/C","second compound 0.316 µM, first compound 0.1 µM",113%
same,"viability, T/C","second compound 0.316 µM, first compound 0.316 µM",98.9%
same,"viability, T/C","second compound 0.316 µM, first compound 1 µM",64.7%
same,"viability, T/C","second compound 0.316 µM, first compound 3.16 µM",53.6%
same,"viability, T/C","second compound 0.316 µM, first compound 10 µM",46.9%
same,"viability, T/C","second compound 1 µM, first compound 0.0316 µM",111%
same,"viability, T/C","second compound 1 µM, first compound 0.1 µM",107%
same,"viability, T/C","second compound 1 µM, first compound 0.316 µM",94.9%
same,"viability, T/C","second compound 1 µM, first compound 1 µM",56.2%
same,"viability, T/C","second compound 1 µM, first compound 3.16 µM",63.8%
same,"viability, T/C","second compound 1 µM, first compound 10 µM",37.3%
same,"viability, T/C","second compound 3.16 µM, first compound 0.0316 µM",115%
same,"viability, T/C","second compound 3.16 µM, first compound 0.1 µM",110%
same,"viability, T/C","second compound 3.16 µM, first compound 0.316 µM",98%
same,"viability, T/C","second compound 3.16 µM, first compound 1 µM",70.8%
same,"viability, T/C","second compound 3.16 µM, first compound 3.16 µM",56.4%
same,"viability, T/C","second compound 3.16 µM, first compound 10 µM",40.4%
same,"viability, T/C","second compound 10 µM, first compound 0.0316 µM",100%
same,"viability, T/C","second compound 10 µM, first compound 0.1 µM",104%
same,"viability, T/C","second compound 10 µM, first compound 0.316 µM",95.3%
same,"viability, T/C","second compound 10 µM, first compound 1 µM",68.4%
same,"viability, T/C","second compound 10 µM, first compound 3.16 µM",48.6%
same,"viability, T/C","second compound 10 µM, first compound 10 µM",40.4%

# From PubChem BioAssay AID1963843 (Molecular Pharmacology Branch, DTP, NCI, 2024)
